Assay results published in ChEMBL document CHEMBL1201862, “PubChem BioAssay data set” (2004).
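Briefly, cells in 96-well plates were exposed to five compound concentrations for 48 h, and endpoints were estimated by linear interpolation. The concentration for 50% growth inhibition is given as GI50.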 Active and inactive are the calls of the source. Cut-off read from the data, not from the text of the source: active = GI50 up to about 1.1 µM and inactive = higher.

Legend:
Assay in all cases: DTP human tumour cell line panel, 48 h
786-0 = system: 786-0
A498 = system: A498
A549 = system: A549
ACHN = system: ACHN
CAKI-1 = system: CAKI-1
CCRF-CEM = system: CCRF-CEM
COLO 205 = system: COLO 205
DU-145 = system: DU-145
EKVX = system: EKVX
HCC 2998 = system: HCC 2998
HCT-116 = system: HCT-116
HCT-15 = system: HCT-15
HL-60 = system: HL-60
HOP-62 = system: HOP-62
HOP-92 = system: HOP-92
HT-29 = system: HT-29
Hs-578T = system: Hs-578T
IGROV-1 = system: IGROV-1
K562 = system: K562
KM12 = system: KM12
LOX IMVI = system: LOX IMVI
M14 = system: M14
MDA-MB-231 = system: MDA-MB-231
MDA-MB-435 = system: MDA-MB-435
MDA-N = system: MDA-N
MOLT-4 = system: MOLT-4
Malme-3M = system: Malme-3M
NCI-H226 = system: NCI-H226
NCI-H23 = system: NCI-H23
NCI-H460 = system: NCI-H460
NCI-H522 = system: NCI-H522
NCI/ADR-RES = system: NCI/ADR-RES
OVCAR-3 = system: OVCAR-3
OVCAR-4 = system: OVCAR-4
OVCAR-5 = system: OVCAR-5
OVCAR-8 = system: OVCAR-8
PC-3 = system: PC-3
RPMI-8226 = system: RPMI-8226
RXF 393 = system: RXF 393
SF-268 = system: SF-268
SF-295 = system: SF-295
SF-539 = system: SF-539
SK-MEL-28 = system: SK-MEL-28
SK-MEL-5 = system: SK-MEL-5
SK-OV-3 = system: SK-OV-3
SN12C = system: SN12C
SNB-19 = system: SNB-19
SR = system: SR
SW-620 = system: SW-620
T47D = system: T47D
TK-10 = system: TK-10
UACC-62 = system: UACC-62
UO-31 = system: UO-31
MCF7 = system: MCF7
SK-MEL-2 = system: SK-MEL-2
SNB-75 = system: SNB-75
U-251 = system: U-251
UACC-257 = system: UACC-257

## CCCCOC(=O)NC(Nc1ccc(S(=O)(=O)Nc2ncccn2)cc1)(C(F)(F)F)C(F)(F)F
786-0
  GI50: > 100 µM (inactive)
A498
  GI50: > 100 µM (inactive)
A549
  GI50: > 100 µM (inactive)
ACHN
  GI50: > 100 µM (inactive)
CAKI-1
  GI50: > 100 µM (inactive)
CCRF-CEM
  GI50: 76 µM (inactive)
COLO 205
  GI50: > 100 µM (inactive)
DU-145
  GI50: > 100 µM (inactive)
EKVX
  GI50: > 100 µM (inactive)
HCC 2998
  GI50: 33.5 µM (inactive)
HCT-116
  GI50: > 100 µM (inactive)
HCT-15
  GI50: > 100 µM
HL-60
  GI50: 89.7 µM (inactive)
HOP-62
  GI50: > 100 µM (inactive)
HOP-92
  GI50: > 100 µM (inactive)
HT-29
  GI50: > 100 µM (inactive)
Hs-578T
  GI50: > 100 µM (inactive)
IGROV-1
  GI50: > 100 µM (inactive)
K562
  GI50: > 100 µM (inactive)
KM12
  GI50: > 100 µM (inactive)
LOX IMVI
  GI50: > 100 µM (inactive)
M14
  GI50: > 100 µM (inactive)
MDA-MB-231
  GI50: > 100 µM (inactive)
MDA-MB-435
  GI50: > 100 µM (inactive)
MDA-N
  GI50: > 100 µM (inactive)
MOLT-4
  GI50: > 100 µM (inactive)
Malme-3M
  GI50: > 100 µM (inactive)
NCI-H226
  GI50: > 100 µM (inactive)
NCI-H23
  GI50: > 100 µM (inactive)
NCI-H460
  GI50: > 100 µM (inactive)
NCI-H522
  GI50: > 100 µM (inactive)
NCI/ADR-RES
  GI50: > 100 µM (inactive)
OVCAR-3
  GI50: > 100 µM (inactive)
OVCAR-4
  GI50: > 100 µM (inactive)
OVCAR-5
  GI50: > 100 µM (inactive)
OVCAR-8
  GI50: > 100 µM (inactive)
PC-3
  GI50: > 100 µM (inactive)
RPMI-8226
  GI50: 86.9 µM (inactive)
RXF 393
  GI50: > 100 µM (inactive)
SF-268
  GI50: > 100 µM (inactive)
SF-295
  GI50: > 100 µM (inactive)
SF-539
  GI50: > 100 µM (inactive)
SK-MEL-28
  GI50: > 100 µM (inactive)
SK-MEL-5
  GI50: > 100 µM (inactive)
SK-OV-3
  GI50: > 100 µM (inactive)
SN12C
  GI50: > 100 µM (inactive)
SNB-19
  GI50: > 100 µM (inactive)
SR
  GI50: 78.2 µM (inactive)
SW-620
  GI50: > 100 µM (inactive)
T47D
  GI50: 37 µM (inactive)
TK-10
  GI50: > 100 µM (inactive)
UACC-62
  GI50: > 100 µM (inactive)
UO-31
  GI50: 21.7 µM (inactive)

## O=C1CS(=O)(=O)C(c2cccc(Oc3ccccc3)c2)N1c1cccc(Cl)c1Cl (configuration not stated)
786-0
  GI50: 15 µM (inactive)
A549
  GI50: > 100 µM (inactive)
ACHN
  GI50: 20.3 µM (inactive)
CAKI-1
  GI50: 31.3 µM (inactive)
CCRF-CEM
  GI50: 10.7 µM (inactive)
COLO 205
  GI50: 26.9 µM (inactive)
DU-145
  GI50: 42.6 µM (inactive)
EKVX
  GI50: 23.8 µM (inactive)
HCT-116
  GI50: 22.4 µM (inactive)
HL-60
  GI50: 31 µM (inactive)
HOP-62
  GI50: 40.6 µM (inactive)
HOP-92
  GI50: 7.26 µM (inactive)
HT-29
  GI50: 25.2 µM (inactive)
Hs-578T
  GI50: 29.8 µM (inactive)
K562
  GI50: 16.6 µM (inactive)
KM12
  GI50: 26.7 µM (inactive)
LOX IMVI
  GI50: 17.7 µM (inactive)
M14
  GI50: 39.1 µM (inactive)
MCF7
  GI50: 6.11 µM (inactive)
MDA-MB-231
  GI50: 23.8 µM (inactive)
MDA-MB-435
  GI50: 19.7 µM (inactive)
MDA-N
  GI50: 19.6 µM (inactive)
MOLT-4
  GI50: 20.2 µM (inactive)
Malme-3M
  GI50: 24.3 µM (inactive)
NCI-H226
  GI50: 35.7 µM (inactive)
NCI-H460
  GI50: 36.2 µM (inactive)
NCI-H522
  GI50: 18 µM (inactive)
OVCAR-3
  GI50: 21.5 µM (inactive)
OVCAR-4
  GI50: 20.4 µM (inactive)
OVCAR-5
  GI50: 47.5 µM (inactive)
OVCAR-8
  GI50: 19.1 µM (inactive)
PC-3
  GI50: 26.4 µM (inactive)
RXF 393
  GI50: 25.1 µM (inactive)
SF-268
  GI50: 21.5 µM (inactive)
SF-295
  GI50: 33.8 µM (inactive)
SF-539
  GI50: 20.8 µM (inactive)
SK-MEL-28
  GI50: 51.4 µM (inactive)
SK-MEL-2
  GI50: 19.5 µM (inactive)
SK-MEL-5
  GI50: 18.2 µM (inactive)
SK-OV-3
  GI50: 67 µM (inactive)
SN12C
  GI50: 19.8 µM (inactive)
SNB-19
  GI50: 39.5 µM (inactive)
SNB-75
  GI50: 29.3 µM (inactive)
SR
  GI50: 18.7 µM (inactive)
SW-620
  GI50: 28.8 µM (inactive)
T47D
  GI50: 26.2 µM (inactive)
TK-10
  GI50: 25.3 µM (inactive)
U-251
  GI50: 20 µM (inactive)
UACC-257
  GI50: 21 µM (inactive)
UACC-62
  GI50: 13.5 µM (inactive)
UO-31
  GI50: 29.5 µM (inactive)

## COC(=O)CCC(=O)c1ccc2c(c1)CC1(Cc3ccccc3C1)C2
786-0
  GI50: 94.6 µM (inactive)
A498
  GI50: 48.6 µM (inactive)
A549
  GI50: 54.7 µM (inactive)
ACHN
  GI50: 56.2 µM (inactive)
CCRF-CEM
  GI50: 16.4 µM (inactive)
COLO 205
  GI50: 29.4 µM (inactive)
EKVX
  GI50: > 100 µM (inactive)
HCC 2998
  GI50: 55.8 µM (inactive)
HCT-116
  GI50: 28.3 µM (inactive)
HOP-62
  GI50: > 100 µM (inactive)
HOP-92
  GI50: 31.3 µM (inactive)
HT-29
  GI50: 20.1 µM (inactive)
Hs-578T
  GI50: > 100 µM (inactive)
IGROV-1
  GI50: > 100 µM (inactive)
K562
  GI50: 0.218 µM (active)
KM12
  GI50: > 100 µM (inactive)
LOX IMVI
  GI50: 36.2 µM (inactive)
M14
  GI50: > 100 µM (inactive)
MCF7
  GI50: 85.5 µM (inactive)
MDA-MB-231
  GI50: > 100 µM (inactive)
MDA-MB-435
  GI50: 64 µM (inactive)
MDA-N
  GI50: 49.1 µM (inactive)
MOLT-4
  GI50: 17.7 µM (inactive)
Malme-3M
  GI50: 80.5 µM (inactive)
NCI-H226
  GI50: 24.7 µM (inactive)
NCI-H23
  GI50: 40.1 µM (inactive)
NCI-H522
  GI50: 33.4 µM (inactive)
NCI/ADR-RES
  GI50: 64 µM (inactive)
OVCAR-3
  GI50: 57.8 µM (inactive)
OVCAR-4
  GI50: 32.1 µM (inactive)
OVCAR-5
  GI50: 53.5 µM (inactive)
OVCAR-8
  GI50: 47.1 µM (inactive)
PC-3
  GI50: 41 µM (inactive)
RPMI-8226
  GI50: 31.7 µM (inactive)
RXF 393
  GI50: > 100 µM (inactive)
SF-295
  GI50: 38 µM (inactive)
SF-539
  GI50: > 100 µM (inactive)
SK-MEL-2
  GI50: 34.7 µM (inactive)
SK-MEL-5
  GI50: 16.2 µM (inactive)
SK-OV-3
  GI50: > 100 µM (inactive)
SN12C
  GI50: 82.6 µM (inactive)
SR
  GI50: 14.7 µM (inactive)
T47D
  GI50: 39.1 µM (inactive)
TK-10
  GI50: 78.7 µM (inactive)
U-251
  GI50: 58.7 µM (inactive)
UACC-257
  GI50: 24.3 µM (inactive)
UACC-62
  GI50: > 100 µM (inactive)
UO-31
  GI50: 42.9 µM (inactive)
